This note sets out measurements from ChEMBL document CHEMBL4351032, “Design, synthesis, and biological evaluation of 4-((6,7-dimethoxyquinoline-4-yl)oxy)aniline derivatives as FLT3 inhibitors for the treatment of acute myeloid leukemia” (Bioorg Med Chem Lett, 2019).

Experiment [1] addresses T1, Receptor-type tyrosine-protein kinase FLT3 (Homo sapiens, UniProt P36888).
T1 sequence (P36888 whole entry): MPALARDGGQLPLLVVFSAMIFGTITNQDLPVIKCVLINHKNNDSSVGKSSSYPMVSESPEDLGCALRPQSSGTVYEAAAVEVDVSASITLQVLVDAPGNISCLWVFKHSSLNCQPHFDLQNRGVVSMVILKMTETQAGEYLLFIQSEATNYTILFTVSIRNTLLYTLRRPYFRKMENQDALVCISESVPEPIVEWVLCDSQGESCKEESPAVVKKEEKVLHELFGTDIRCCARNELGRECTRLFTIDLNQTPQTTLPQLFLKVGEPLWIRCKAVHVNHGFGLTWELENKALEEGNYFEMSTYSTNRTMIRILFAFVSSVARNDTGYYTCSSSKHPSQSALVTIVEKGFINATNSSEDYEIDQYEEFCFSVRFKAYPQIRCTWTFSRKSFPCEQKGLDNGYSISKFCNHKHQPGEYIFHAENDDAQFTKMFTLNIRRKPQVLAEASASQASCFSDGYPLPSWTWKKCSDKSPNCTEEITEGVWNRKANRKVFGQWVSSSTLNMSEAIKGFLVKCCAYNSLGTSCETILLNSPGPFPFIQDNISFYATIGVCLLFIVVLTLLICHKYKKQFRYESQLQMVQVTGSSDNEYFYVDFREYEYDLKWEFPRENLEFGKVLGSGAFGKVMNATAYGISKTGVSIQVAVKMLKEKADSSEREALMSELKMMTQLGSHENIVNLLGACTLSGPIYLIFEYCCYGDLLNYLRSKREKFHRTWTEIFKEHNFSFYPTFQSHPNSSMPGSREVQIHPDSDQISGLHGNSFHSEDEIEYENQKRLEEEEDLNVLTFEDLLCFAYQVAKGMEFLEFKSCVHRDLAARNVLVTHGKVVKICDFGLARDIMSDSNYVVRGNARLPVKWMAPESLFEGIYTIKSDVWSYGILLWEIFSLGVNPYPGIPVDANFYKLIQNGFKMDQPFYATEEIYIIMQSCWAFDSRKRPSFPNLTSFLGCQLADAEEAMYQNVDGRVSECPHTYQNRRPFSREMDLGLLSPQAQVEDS
The experiment in a line: Inhibition of FLT3 (unknown origin).

The test system of experiment [2] is HL-60. The experiment in a line: Antiproliferative activity against human HL60 cells harboring wild type FLT3 assessed as inhibition of cell growth incubated for 72 hrs by CCK-8 assay. Type of experiment: functional, cell-based. The conditions noted are these: HL-60, 72 h.
A further experiment deals with MV4-11. The experiment in a line: Antiproliferative activity against human MV4-11 cells harboring FLT3-ITD assessed as inhibition of cell growth incubated for 72 hrs by CCK-8 assay. Type of experiment: functional, cell-based. The conditions noted are these: MV4-11, 72 h. In general terms: Tetrazolium assays rely on reduction of a dye to a coloured formazan, in cell work by metabolically active cells.

Experiment [3] has as its target T1, Receptor-type tyrosine-protein kinase FLT3. The experiment is described as follows: Inhibition of FLT3 (unknown origin) using peptide as substrate preincubated with enzyme for 10 mins followed by substrate addition further incubated for 1 hr by mobility shift assay.
Experiment [4] relates to HL-60. The experiment is described as follows: Potency index, ratio of cabozantinib IC50 to compound IC50 for human HL60 cells incubated for 72 hrs by CCK-8 assay. It counts as functional.

The term IC50 denotes the concentration at which inhibition is half-maximal. Turning to `COc1cc2c(Oc3ccc(NC(=O)c4nn(-c5ccccc5)c(=O)cc4C)cc3F)ccnc2cc1OCCCN1CCOCC1`, the half-maximal inhibitory concentration (IC50) in experiment [1] turned out to be 0.00928 µM. For the compound `COc1cc2nccc(Oc3ccc(N/C(=N/c4ccc(F)cc4)C(F)(F)F)cc3)c2cc1OC`, the IC50 in the experiment with HL-60 [2] worked out at 48.9 µM. Still for that read-out and setting: as for `COc1ccc(/N=C(/Nc2ccc(Oc3ccnc4cc(OC)c(OC)cc34)cc2)C(F)(F)F)cc1`, the figure is 36.2 µM.

On to `COc1cc2nccc(Oc3ccc(NC(=O)N/N=C/c4cn(-c5ccccc5Br)nn4)cc3)c2cc1OC`, for which the IC50 in the experiment on HL-60 [2] and with MV4-11 was over 50 µM in each case.

With `COc1cccc(-n2cc(/C=N/NC(=O)Nc3ccc(Oc4ccnc5cc(OC)c(OC)cc45)cc3)nn2)c1`, the half-maximal inhibitory concentration (IC50) in the experiment with HL-60 [2] was 18.8 µM; with MV4-11, 13.8 µM; in experiment [3], over 1 µM. For the compound `COc1cc2nccc(Oc3ccc(NC(=O)N/N=C/c4cn(-c5cccc(Cl)c5)nn4)cc3)c2cc1OC`, the IC50 was 21.1 µM in the experiment with HL-60 [2], 13.4 µM in the experiment on MV4-11 and over 1 µM in experiment [3]. For `COc1cc2nccc(Oc3ccc(N/C(=N/c4ccc(C)cc4)C(F)(F)F)cc3)c2cc1OC`, the IC50 in the experiment with HL-60 [2] worked out at 46.2 µM. Take `COc1cc2nccc(Oc3ccc(NC(=O)N/N=C/c4cn(-c5cccc(F)c5)nn4)cc3)c2cc1OC`: the IC50 in the experiment with HL-60 [2] turned out to be 8.91 µM; in the experiment with MV4-11, 5.8 µM; in experiment [3] it was 0.384 µM. Besides, in the experiment with HL-60 [4], the “Ratio IC50” value came out at 2.52. `COc1cc2nccc(Oc3ccc(N/C(=N/c4ccc(Cl)c(C(F)(F)F)c4)C(F)(F)F)cc3)c2cc1OC`: the concentration for half-maximal inhibition (IC50) in the experiment with HL-60 [2] was over 50 µM. The same measure, in the same setting: as for `COc1cc2nccc(Oc3ccc(N/C(=N/c4ccc([N+](=O)[O-])cc4)C(F)(F)F)cc3)c2cc1OC`, the figure is over 50 µM. On the same count and under the same terms, then `COc1cc2nccc(Oc3ccc(N/C(=N/c4cccc(Cl)c4)C(F)(F)F)cc3)c2cc1OC`, with over 50 µM; and `COc1cc2nccc(Oc3ccc(N/C(=N/c4cccc(C(F)(F)F)c4)C(F)(F)F)cc3)c2cc1OC`, with over 50 µM. For `COc1cc2nccc(Oc3ccc(NC(=O)N/N=C/c4cn(-c5ccc(F)cc5)nn4)cc3)c2cc1OC`, the half-maximal inhibitory concentration (IC50) is 21.7 µM with HL-60 [2] and 21.4 µM in the experiment on MV4-11. `COc1cc2nccc(Oc3ccc(N/C(=N/c4ccc(Cl)c(Cl)c4)C(F)(F)F)cc3)c2cc1OC`: the half-maximal inhibitory concentration (IC50) with HL-60 [2] is over 50 µM.

`COc1cc2nccc(Oc3ccc(NC(=O)N/N=C/c4cn(-c5cccc(C(F)(F)F)c5)nn4)cc3)c2cc1OC`: the 50% inhibitory concentration (IC50) in the experiment on HL-60 [2] is over 50 µM; in the experiment with MV4-11, 49.1 µM. On the same counts, the results for `COc1cc2nccc(Oc3ccc(NC(=O)N/N=C/c4cn(-c5ccccc5Cl)nn4)cc3)c2cc1OC` are over 50 µM and 48.4 µM. Taken in the same sequence, the figures for `COc1cc2nccc(Oc3ccc(NC(=O)N/N=C/c4cn(-c5cccc(C)c5)nn4)cc3)c2cc1OC` were 25.7 µM and 19.3 µM. For `COc1cc2nccc(Oc3ccc(NC(=O)N/N=C/c4cn(-c5ccccc5F)nn4)cc3)c2cc1OC`, the IC50 is 16.4 µM in the experiment on HL-60 [2], 13.6 µM in the experiment on MV4-11 and over 1 µM in experiment [3].

For the compound `COc1cc2nccc(Oc3ccc(N/C(=N/c4ccc(OC(F)(F)F)cc4)C(F)(F)F)cc3)c2cc1OC`, in the experiment on HL-60 [2], the concentration for half-maximal inhibition (IC50) stood at 32.7 µM. `COc1cc2nccc(Oc3ccc(NC(=O)N/N=C/c4cn(-c5ccccc5OC)nn4)cc3)c2cc1OC`: the concentration for half-maximal inhibition (IC50) stood at 14.2 µM with HL-60 [2], 8.29 µM with MV4-11 and 0.312 µM in experiment [3]. For `COc1cc2nccc(Oc3ccc(N/C(=N/c4ccccc4)C(F)(F)F)cc3)c2cc1OC`, the IC50 with HL-60 [2] is 44.6 µM.

Take `COc1ccc(-n2cc(/C=N/NC(=O)Nc3ccc(Oc4ccnc5cc(OC)c(OC)cc45)cc3)nn2)cc1`: the IC50 in the experiment with HL-60 [2] was determined as 19.3 µM; in the experiment on MV4-11, 16.3 µM.

For `COc1cc2nccc(Oc3ccc(NC(=O)N/N=C/c4cn(-c5ccccc5)nn4)cc3)c2cc1OC`, the 50% inhibitory concentration (IC50) turned out to be 41.3 µM in the experiment with HL-60 [2] and 38.7 µM with MV4-11.

For the compound `COc1cc2nccc(Oc3ccc(NC(=O)C4(C(=O)Nc5ccc(F)cc5)CC4)cc3)c2cc1OC` [CABOZANTINIB], the figures for the IC50 with HL-60 [2] and in the experiment with MV4-11 were 22.5 µM and 15.2 µM, respectively.
